Experimental data taken from patent publication US7329661B2, “N-phenyl-3-pyrimidine-amine derivatives” (Novartis AG, priority 2000, dated 2008).

Legend:
[1] = test system: CYP3A4/5; experiment: Risk of metabolic drug interaction from in vitro P450 inhibition, CYP3A4/5; type: in vitro ADME, human; details: ratio of plasma concentration to Ki
From the text: (§1) In order to evaluate the effect of the compounds of formula I on cytochromes P450 (CYPs), e.g. enzyme inhibition is routinely assessed by performing in vitro inhibition studies using cDNA-expressed enzymes or human liver microsomes (Parkinson, A., Toxicol. Pathol. 24, 45-57 [1996]). Specific drug marker substrate assays according to Tucker et al., Clin. Pharmacol. Ther. 70, 103-114 (2001) can be used to determine the 50% inhibition concentration (IC50) of a compound of formula I for the principal drug-metabolizing P450 enzymes such as e.g. CYP1A2, CYP2A6, CYP2B6, CYP2C8, CYP2C9, CYP2C19, CYP2D6, CYP2E1, CYP3A4/5 and CP4A9/11.
(§2) Inhibition constants Ki or IC50 values derived by these in vitro assays provide a measure for the inhibition capacity of the tested drug compound according to the ratio of drug concentration in plasma to the respective inhibition constant Ki, where a ratio of >1.0 results in a high risk, 1.0-0.1 in a medium risk, and <0.1 in a low risk of metabolic drug interaction.

[2] = biological target: CYP2D6 (Homo sapiens, UniProt P10635); experiment: Risk of metabolic drug interaction from in vitro P450 inhibition, CYP2D6; type: in vitro ADME; details: ratio of plasma concentration to Ki
From the text: as §1, §2

[3] = test system: certain cytochrome P450 enzymes; experiment: Cytochrome P450 inhibition in vitro; type: in vitro ADME, human
From the text: as §1, §2

[4] = Human plasma level and half-life; type: in vivo

Chain of CYP2D6 (P10635 whole entry): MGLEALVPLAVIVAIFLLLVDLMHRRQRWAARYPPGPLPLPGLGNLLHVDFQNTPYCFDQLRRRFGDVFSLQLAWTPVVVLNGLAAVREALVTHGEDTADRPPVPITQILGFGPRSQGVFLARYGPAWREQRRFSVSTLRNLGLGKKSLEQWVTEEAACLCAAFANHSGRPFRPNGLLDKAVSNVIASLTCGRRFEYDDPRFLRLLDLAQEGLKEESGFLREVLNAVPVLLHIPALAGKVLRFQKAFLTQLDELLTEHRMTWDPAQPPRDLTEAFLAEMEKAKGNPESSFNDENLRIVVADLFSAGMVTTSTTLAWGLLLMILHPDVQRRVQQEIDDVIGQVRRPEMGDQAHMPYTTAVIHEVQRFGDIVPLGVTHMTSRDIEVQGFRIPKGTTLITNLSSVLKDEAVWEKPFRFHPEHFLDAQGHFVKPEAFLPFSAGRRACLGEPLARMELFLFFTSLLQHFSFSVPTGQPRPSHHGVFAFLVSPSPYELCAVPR

Cc1ccc(NC(=O)c2ccc(CN3CCNCC3)cc2)cc1Nc1nccc(-c2cccnc2)n1 [Example 9, N-[4-methyl-3-(4-pyridin-3-yl-pyrimidin-2-ylamino)-phenyl]-4-piperazin-1-ylmethyl-benzamide]
risk of drug-drug interactions compared with STI571 [1]: much lower risk
risk of drug-drug interactions compared with STI571 [2]: much lower risk
inhibition of certain cytochrome P450 enzymes compared with STI571 [3]: less inhibition
half-life compared with STI571 [4]: somewhat longer than that of STI571

CS(=O)(=O)O.Cc1ccc(NC(=O)c2ccc(CN3CCNCC3)cc2)cc1Nc1nccc(-c2cccnc2)n1 [Example 10, N-[4-methyl-3-(4-pyridin-3-yl-pyrimidin-2-ylamino)-phenyl]-4-piperazin-1-ylmethyl-benzamide methanesulfonate]
melting point: 242 to 245 °C

CCN1CCN(Cc2ccc(C(=O)Nc3ccc(C)c(Nc4nccc(-c5cccnc5)n4)c3)cc2)CC1 [Example 1, 4-(4-ethyl-piperazin-1-ylmethyl)-N-[4-methyl-3-(4-pyridin-3-yl-pyrimidin-2-ylamino)-phenyl]-benzamide]
melting point: 209.5 to 210.5 °C
